Literature values as cited in patent US20090062406A1, “Aqueous concentrates of isethionate, taurate and betaine” (Clariant International Ltd., priority 2007, published 2009).

Settings: 20° C.

Substance: sodium methyl cocoyl taurate
- Solubility in water: 10000 µg/mL
